The test system of this assay is intracellular Trypanosoma cruzi in host cells, plate reader. The assay is described as follows: intracellular Trypanosoma cruzi inhibitors in host cells – cell-based, plate reader, cherry-pick samples, set 3, dose response (AID 651818).

What is called AC50 is the midpoint of the concentration-response curve, whichever way the signal moves.

Records with an inconclusive call do not appear.

In the case of `C[C@@H]1CN([C@@H](C)CO)C(=O)c2cccc(NC(=O)c3ccncc3)c2O[C@H]1CN(C)Cc1ccc(Oc2ccccc2)cc1`, the half-maximal activity concentration (AC50) is below 75 nM.

For the origin of these results see PubChem BioAssay AID651818 (Broad Institute, 2012).
